Reference: PubChem BioAssay (NCI)
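In this assay, cells in 96-well plates receive the compound at five concentrations for 48 hours. Endpoints are linearly interpolated between the surrounding concentrations. GI50: concentration for 50% inhibition of growth. At the TGI there is no net growth.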 Calls of active or inactive are those of the source. Cut-off read from the data, not from the text of the source: active = GI50 below about 0.43 µM; inactive = the rest.

How the values were obtained:
Assay in all cases: NCI tumour cell line growth inhibition, 48 h
HCT-116 colon = system: HCT-116 colon
HT29 colon = system: HT29 colon
SK-OV-3 ovarian = system: SK-OV-3 ovarian
RXF 393 renal = system: RXF 393 renal
SNB-75 CNS = system: SNB-75 CNS
MOLT-4 leukemia = system: MOLT-4 leukemia
HCC-2998 colon = system: HCC-2998 colon
MDA-MB-435 = system: MDA-MB-435

Structure (SMILES)	GI50 (HCT-116 colon) [µM]	TGI (HCT-116 colon) [µM]	GI50 (HT29 colon) [µM]	TGI (HT29 colon) [µM]	GI50 (SK-OV-3 ovarian) [µM]	TGI (SK-OV-3 ovarian) [µM]	GI50 (RXF 393 renal) [µM]	TGI (RXF 393 renal) [µM]	GI50 (SNB-75 CNS) [µM]	TGI (SNB-75 CNS) [µM]	GI50 (MOLT-4 leukemia) [µM]	TGI (MOLT-4 leukemia) [µM]	GI50 (HCC-2998 colon) [µM]	TGI (HCC-2998 colon) [µM]	GI50 (MDA-MB-435) [µM]	TGI (MDA-MB-435) [µM]	outcome (HCT-116 colon)	outcome (SK-OV-3 ovarian)	outcome (SNB-75 CNS)	outcome (HCC-2998 colon)
Nc1nccc(-c2c(-c3ccc(F)cc3)ncn2C2CCC(O)CC2)n1 (stereo not drawn)	9.75	> 25	6.8	> 25	3.97	12.2	4.77	> 23.8	6.61	> 21	22.5	> 25	17.3	> 25	6.75	> 25	–	–	–	–
CC1CN1C(=O)NCCCCCCNC(=O)N1CC1C (stereo not drawn)	–	> 100	–	> 100	–	> 100	–	> 100	–	> 100	–	> 100	–	> 100	–	> 100	–	–	–	–
CC/C=C\C[C@H](F)C/C=C1/C(=O)C=C[C@@H]1C/C=C\CCCC(=O)O	1.34	4.78	5.4	15	12.6	> 32.5	5.19	10.2	12.5	> 32.5	1.14	12	6.93	12.2	4.06	11.3	–	–	–	–
O=C1Nc2ccccc2C1(c1ccc(O)cc1)c1ccc(O)cc1	14.5	31.6	29.3	> 90	22.8	54.2	0.445	13.4	12.7	38	26.6	98.1	1.99	27	23	71.3	–	–	–	–
CC1(C)OC2=C(CC1Br)C(=O)C(=O)c1ccccc12 (stereo not drawn)	1.7	3.41	2.4	5.25	1.96	3.47	1.9	3.33	1.82	3.26	2.27	5.26	1.69	3.12	1.69	3.35	–	–	–	–
Cc1ccc(C(=O)N(CCCN)C(c2oc3cc(Cl)ccc3c(=O)c2Cc2ccccc2)C(C)C)cc1 (stereo not drawn)	–	–	< 0.01	0.437	< 0.01	1.57	< 0.01	1.48	< 0.01	1.46	< 0.01	2.94	< 0.01	1.58	< 0.01	< 0.01	–	–	–	–
Cc1ccc2c(c1)Sc1c(ccc3ccccc13)N2	8.37	> 100	51.2	> 100	> 100	> 100	> 100	> 100	15.5	> 100	6.82	> 100	98.7	> 100	> 100	> 100	–	–	–	–
CS(=O)(=O)c1ccc(-n2nc(C(F)(F)F)cc2OC2CCCC2)cc1	34.5	> 100	24.7	78.4	51.8	> 100	94.3	> 100	> 100	> 100	35.9	> 100	27	73.5	59.6	> 100	–	–	–	–
Cc1cc(Cl)cc2c1NC(=O)C2(O)CC(=O)c1ccco1 (stereo not drawn)	–	> 100	–	> 100	–	> 100	–	> 100	–	> 100	–	81.2	–	> 100	–	14.2	–	–	–	–
Nc1nc(N(Cc2ccccc2)c2ccccc2)c2cn[nH]c2n1	3.19	> 100	3.54	> 100	3.73	> 100	2.93	22	2.47	> 100	3.21	> 100	6.41	> 100	2.63	> 100	–	–	–	–
O=c1cc(-c2ccccc2)oc2cc(OC/C(=N/O)c3ccccc3)ccc12	–	–	22.4	> 50	12.1	32.5	16	> 50	9.01	32.6	> 50	> 50	30.7	> 50	> 50	> 50	–	–	–	–
COc1cc2cc(Oc3ccc(NC(=O)Nc4ccc(Cl)c(C(F)(F)F)c4)cc3)c(C)nc2cc1OCCN1CCOCC1	1.2	10.8	2.57	11.2	3.34	17.5	1.77	3.99	1.65	7.05	1.48	10.5	3.68	11.1	1.94	4.1	–	–	–	–
O=C(CCc1nnc2sc(-c3ccc(Cl)cc3Cl)nn12)c1nc2ccccc2[nH]1	0.247	0.692	0.374	2.01	1.77	3.46	0.394	1.04	1.48	3.53	0.29	–	1.42	2.92	0.382	2.22	–	–	–	–
CCOC(=S)SSSC(=S)OCC	–	53.7	–	> 100	–	> 100	–	> 100	–	> 100	–	94.7	–	> 100	–	> 100	–	–	–	–
CCCC(=O)OCC1OC(n2cnc3c(=S)nc[nH]c32)C(OC(=O)CCC)C1OC(=O)CCC (stereo not drawn)	4	> 100	3.63	> 100	0.804	69.8	26	> 100	4.04	> 100	3.06	39.1	2.92	> 100	3.55	> 100	–	–	–	–
C#CCNC(=O)c1cccc2c1cc(C)n2-c1nc2c(c(NCc3ccccc3)n1)CCCC2	0.0109	0.0378	0.03	0.0924	0.056	0.232	0.0122	0.0406	0.0365	0.0872	0.0229	0.075	0.0164	0.0331	0.0235	0.0656	–	–	–	–
COc1ccc(C(=O)C#Cc2cnc(OC)nc2OC)cc1	–	2.75	17900	–	–	27.2	26800	–	–	4.8	17900	–	–	3.83	28200	–	inactive	inactive	inactive	inactive
CS(=O)(=O)CCNCc1ccc(-c2ccc3ncnc(Nc4ccc(OCc5ccccc5)cc4)c3c2)o1	5.99	> 17	3.33	13.5	0.401	> 25	4.12	10.1	5.71	> 25	9.31	> 25	5.26	12.1	4.94	11.4	–	–	–	–
O=S(=O)(NC1=NCCN1C(=S)SN1CCn2c1nsc2=S)c1cccc(Cl)c1	13.2	28.1	20.5	74	–	–	4.04	21.6	29.2	55.6	12.8	> 100	22.5	37.3	9.69	27.7	–	–	–	–
COC(=O)Nc1nc2ccc(Oc3ccc(NC(=O)Nc4cc(C(F)(F)F)ccc4F)cc3)cc2s1	8.8	> 25	12.7	> 25	> 25	> 25	> 25	> 25	6.76	> 23.8	> 25	> 25	> 25	> 25	7.37	> 25	–	–	–	–
CCCCCCCCn1ccc2cc(NC(=O)Cn3cc(CN4CCCC4)nn3)ccc21	1.7	3.32	1.97	4.09	1.81	3.51	1.6	3.37	1.52	2.93	2.41	5.9	1.73	3.17	1.73	3.24	–	–	–	–
C=C(C[C@](O)(C(=O)/C=C/c1ccc(Cl)cc1)C(=O)OC)c1ccccc1	1.92	3.96	1.9	4.65	11.1	23.1	1.66	3.31	8.43	21.8	2.59	8.35	1.84	3.42	1.95	4.84	–	–	–	–
CCOCC(=O)N[C@H]1CCc2cc(OC)c(OC)c(OC)c2-c2ccc(OC)c(=O)cc21	–	10.7	–	> 8.15	–	15	–	> 100	–	–	–	> 52.7	–	5.27	–	< 0.0196	–	–	–	–
Cc1cc2c(cc1Cl)SC1=NN(C)S(=O)N1S2(=O)=O (stereo not drawn)	> 100	> 100	> 100	> 100	> 100	> 100	–	–	58.7	> 100	> 100	> 100	> 100	> 100	> 100	> 100	–	–	–	–
